# Results from patent US20160120863A1, “SLC2A TRANSPORTER INHIBITORS” (IOMET PHARMA LTD., priority 2013, published 2016).
# Target: T1, human GLUT1 (Homo sapiens, UniProt P11166)
# T1 construct: expressed in transfected cells
# T1 sequence (P11166 1-492): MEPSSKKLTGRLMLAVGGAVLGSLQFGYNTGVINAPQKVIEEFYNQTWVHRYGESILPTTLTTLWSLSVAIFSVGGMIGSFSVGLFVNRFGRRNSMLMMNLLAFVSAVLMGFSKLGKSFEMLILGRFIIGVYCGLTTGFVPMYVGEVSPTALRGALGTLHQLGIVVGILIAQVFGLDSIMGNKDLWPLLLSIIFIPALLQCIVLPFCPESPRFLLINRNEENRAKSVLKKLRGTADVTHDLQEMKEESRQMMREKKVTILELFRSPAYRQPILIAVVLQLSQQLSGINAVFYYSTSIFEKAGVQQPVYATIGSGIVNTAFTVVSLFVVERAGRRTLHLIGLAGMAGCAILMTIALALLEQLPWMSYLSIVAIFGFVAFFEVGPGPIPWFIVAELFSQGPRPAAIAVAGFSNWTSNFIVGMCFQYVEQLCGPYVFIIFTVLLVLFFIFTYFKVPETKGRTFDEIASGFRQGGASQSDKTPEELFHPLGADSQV
# Experiment: [3H]-deoxy-D-glucose uptake assay, GLUT1
# Assay type: cell-based
# Details: [3H]-deoxy-D-glucose uptake in HEK293 cells stably expressing human GLUT1
# Summary of the method: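 HEK293 cells stably overexpressing human GLUT1 or GLUT2, seeded at 60,000 per well, treated with compounds in glucose-free uptake buffer for 30 min at 37 °C. [3H]-deoxy-D-glucose uptake quantified by scintillation counting after ice-cold PBS washes; IC50 determined.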
row,GLUT1 pIC50,SMILES
1,+++ (pIC50 ≧ 6.00),O=C(c1ccnnc1)N1CCN(Cc2c(-c3ccc(Cl)cc3)nc3ccc(-c4ccccc4)cn23)CC1 [Compound 212]
2,+++ (pIC50 ≧ 6.00),N#Cc1ccccc1-c1ccc2nc(-c3ccc(Cl)cc3)c(CN3CCN(C(=O)C4CCC4)CC3)n2c1 [Compound 213]
3,++ (pIC50 5.00-5.99),CS(=O)(=O)Nc1ccc2nc(-c3ccc(Cl)cc3)c(CN3CCOCC3)n2c1 [Compound 215]
4,+++ (pIC50 ≧ 6.00),C=C(C)c1cn2c(CN3CCOCC3)c(-c3ccc(Cl)cc3)nc2cn1 [Compound 216]
5,+++ (pIC50 ≧ 6.00),COCC(=O)N1CCN(Cc2c(-c3ccc(Cl)cc3)nc3ccc(-c4ccccc4C#N)cn23)CC1 [Compound 218]
6,+++ (pIC50 ≧ 6.00),CCC(=O)N1CCN(Cc2c(-c3ccc(Cl)cc3)nc3ccc(-c4ccccc4C#N)cn23)CC1 [Compound 219]
7,+++ (pIC50 ≧ 6.00),N#Cc1ccccc1-c1ccc2nc(-c3ccc(Cl)cc3)c(CN3CCN(C(=O)c4ccncc4)CC3)n2c1 [Compound 220]
8,+++ (pIC50 ≧ 6.00),N#Cc1ccccc1-c1ccc2nc(-c3ccc(Cl)cc3)c(CN3CCN(C(=O)c4cnccn4)CC3)n2c1 [Compound 221]
9,+− (pIC50 < 4.00),O=C(O)CN1CCN(Cc2c(-c3ccc(Cl)cc3)nc3ccc(-c4ccccc4)cn23)CC1 [Compound 223]
10,+++ (pIC50 ≧ 6.00),COCC(=O)N1CCN(Cc2c(-c3ccc(Cl)cc3)nc3ccc(-c4c(F)cccc4F)cn23)CC1 [Compound 225]
11,+++ (pIC50 ≧ 6.00),CC(=O)N1CCN(Cc2c(-c3ccc(Cl)cc3)nc3ccc(-c4c(F)cccc4F)cn23)CC1 [Compound 226]
12,+− (pIC50 < 4.00),CN(CC(=O)N(C)C)Cc1c(-c2ccc(Cl)cc2)nc2ccc(-c3ccccc3)cn12 [Compound 228]
13,+++ (pIC50 ≧ 6.00),O=C(c1cocn1)N1CCN(Cc2c(-c3ccc(Cl)cc3)nc3ccc(-c4ccccc4)cn23)CC1 [Compound 229]
14,+++ (pIC50 ≧ 6.00),O=C(c1ccc(=O)[nH]c1)N1CCN(Cc2c(-c3ccc(Cl)cc3)nc3ccc(-c4ccccc4)cn23)CC1 [Compound 230]
15,+++ (pIC50 ≧ 6.00),CC(=O)N1CCCN(Cc2c(-c3ccc(Cl)cc3)nc3ccc(-c4ccccc4)cn23)CC1 [Compound 231]
16,+++ (pIC50 ≧ 6.00),O=C(c1cnco1)N1CCN(Cc2c(-c3ccc(Cl)cc3)nc3ccc(-c4ccccc4)cn23)CC1 [Compound 233]
17,+++ (pIC50 ≧ 6.00),O=C(c1ccncc1)N1CCN(Cc2c(-c3ccc(Cl)cc3)nc3ccc(-c4c(F)cccc4F)cn23)CC1 [Compound 235]
18,++ (pIC50 5.00-5.99),Clc1ccc(-c2nc3ccc(C4CCOCC4)cn3c2CN2CCOCC2)cc1 [Compound 237]
19,+++ (pIC50 ≧ 6.00),N#Cc1ccccc1-c1ccc2nc(-c3ccc(Cl)cc3)c(CN3CCNC(=O)C3)n2c1 [Compound 239]
20,++ (pIC50 5.00-5.99),Clc1ccc(-c2nc3ccc(C4CCCC4)cn3c2CN2CCOCC2)cc1 [Compound 240]
21,++ (pIC50 5.00-5.99),Clc1ccc(-c2nc3ccc(-c4ncccn4)cn3c2CN2CCOCC2)cc1 [Compound 241]
22,+++ (pIC50 ≧ 6.00),Cn1cc(C(=O)N2CCN(Cc3c(-c4ccc(Cl)cc4)nc4ccc(-c5ccccc5)cn34)CC2)cn1 [Compound 243]
23,+++ (pIC50 ≧ 6.00),O=C(c1cc[nH]c(=O)c1)N1CCN(Cc2c(-c3ccc(Cl)cc3)nc3ccc(-c4ccccc4)cn23)CC1 [Compound 244]
24,+− (pIC50 < 4.00),OC(c1c(-c2ccc(Cl)cc2)nc2ccc(-c3ccccc3)cn12)C1CCCN1 (stereo not drawn) [Compound 245]
25,++ (pIC50 5.00-5.99),Cn1ccnc1C(=O)N1CCN(Cc2c(-c3ccc(Cl)cc3)nc3ccc(-c4ccccc4)cn23)CC1 [Compound 246]
26,++ (pIC50 5.00-5.99),CN1CCN(Cc2c(-c3ccc(Cl)cc3)nc3ccc(-c4ccccc4)cn23)CC1=O [Compound 248]
27,++ (pIC50 5.00-5.99),Fc1cc(Cl)ccc1-c1nc2ccc(-c3ccccc3)cn2c1CN1CCOCC1 [Compound 249]

row,GLUT1 pIC50,SMILES
1,+++ (pIC50 ≧ 6.00),O=C(c1cn[nH]c1)N1CCN(Cc2c(-c3ccc(Cl)cc3)nc3ccc(-c4ccccc4)cn23)CC1 [Compound 250]
2,++ (pIC50 5.00-5.99),Fc1cccnc1-c1ccc2nc(-c3ccc(Cl)cc3)c(CN3CCOCC3)n2c1 [Compound 251]
3,+++ (pIC50 ≧ 6.00),O=C(c1cnccn1)N1CCN(Cc2c(-c3ccc(Cl)cc3)nc3cnc(C4CC4)cn23)CC1 [Compound 255]
4,+++ (pIC50 ≧ 6.00),O=C(C1CCOCC1)N1CCN(Cc2c(-c3ccc(Cl)cc3)nc3cnc(C4CC4)cn23)CC1 [Compound 256]
5,+++ (pIC50 ≧ 6.00),COCC(=O)N1CCN(Cc2c(-c3ccc(Cl)cc3)nc3ccc(NS(C)(=O)=O)cn23)CC1 [Compound 260]
6,+++ (pIC50 ≧ 6.00),O=C(c1cnccn1)N1CCN(Cc2c(-c3ccc(Cl)cc3)nc3ccc(C4CC4)cn23)CC1 [Compound 263]
7,+++ (pIC50 ≧ 6.00),O=C(c1nccs1)N1CCN(Cc2c(-c3ccc(Cl)cc3)nc3ccc(-c4ccccc4)cn23)CC1 [Compound 266]
8,+++ (pIC50 ≧ 6.00),O=C(c1cscn1)N1CCN(Cc2c(-c3ccc(Cl)cc3)nc3cnc(C4CC4)cn23)CC1 [Compound 267]
9,+++ (pIC50 ≧ 6.00),O=C(c1ccnnc1)N1CCN(Cc2c(-c3ccc(Cl)cc3)nc3cnc(C4CC4)cn23)CC1 [Compound 268]
10,+++ (pIC50 ≧ 6.00),CC(=O)N1CCN(Cc2c(-c3ccc(Cl)cc3)nc3ccc(-c4ncon4)cn23)CC1 [Compound 270]
11,+++ (pIC50 ≧ 6.00),O=C(C1COC1)N1CCN(Cc2c(-c3ccc(Cl)cc3)nc3cnc(C4CC4)cn23)CC1 [Compound 274]
12,++ (pIC50 5.00-5.99),COCC(=O)N1CCN(Cc2c(-c3ccc(Cl)cc3)nc3ccc([N+](=O)[O-])cn23)CC1 [Compound 275]
13,+− (pIC50 < 4.00),CC(=O)N1CCN(Cc2c(-c3ccc(Cl)cc3)nc3ccc(N)cn23)CC1 [Compound 276]
14,+++ (pIC50 ≧ 6.00),O=C(CO)N1CCN(Cc2c(-c3ccc(Cl)cc3)nc3ccc(-c4ccccc4)cn23)CC1 [Compound 277]
15,+++ (pIC50 ≧ 6.00),CS(=O)(=O)Nc1ccc2nc(-c3ccc(Cl)cc3)c(CN3CCN(C(=O)c4cscn4)CC3)n2c1 [Compound 279]
16,+− (pIC50 < 4.00),COCC(=O)N1CCN(Cc2c(-c3ccc(Cl)cc3)nc3ccc(N)cn23)CC1 [Compound 280]
17,+++ (pIC50 ≧ 6.00),O=C(c1ccncc1)N1CCN(Cc2c(-c3ccc(Cl)cc3)nc3ccc(-c4ncon4)cn23)CC1 [Compound 281]
18,+− (pIC50 < 4.00),O=C(c1c(-c2ccc(Cl)cc2)nc2ccc(-c3ccccc3)cn12)N1CCOCC1 [Compound 282]
19,+− (pIC50 < 4.00),CN1CCN(C(=O)c2c(-c3ccc(Cl)cc3)nc3ccc(-c4ccccc4)cn23)CC1 [Compound 283]
20,+++ (pIC50 ≧ 6.00),COCC(=O)N1CCN(Cc2c(-c3ccc(Cl)cc3)nc3ccc(-c4ncon4)cn23)CC1 [Compound 284]
21,+++ (pIC50 ≧ 6.00),O=C(C1COC1)N1CCN(Cc2c(-c3ccc(Cl)cc3)nc3ccc(-c4ncon4)cn23)CC1 [Compound 285]
22,+++ (pIC50 ≧ 6.00),CS(=O)(=O)Nc1ccc2nc(-c3ccc(Cl)cc3)c(CN3CCN(C(=O)C4COC4)CC3)n2c1 [Compound 286]
23,+++ (pIC50 ≧ 6.00),Clc1ccc(-c2nc3ccc(-c4nccs4)cn3c2CN2CCOCC2)cc1 [Compound 287]
24,+++ (pIC50 ≧ 6.00),O=C1CN(Cc2c(-c3ccc(Cl)cc3)nc3cnc(C4CC4)cn23)CCN1 [Compound 288]
25,+++ (pIC50 ≧ 6.00),CS(=O)(=O)Nc1ccc2nc(-c3ccc(Cl)cc3)c(CN3CCNC(=O)C3)n2c1 [Compound 289]
26,+− (pIC50 < 4.00),CC(C)(C)OC(=O)N1CCN(C(=O)c2c(-c3ccc(Cl)cc3)nc3ccc(-c4ccccc4)cn23)CC1 [Compound 290]
27,+− (pIC50 < 4.00),O=C(c1c(-c2ccc(Cl)cc2)nc2ccc(-c3ccccc3)cn12)N1CCNCC1 [Compound 291]
